{"source": "patent US10640802B2", "about": "(priority 2012, dated 2020)", "key": {"[1]": {"molecular_target": "T1, Acidithiobacillus ferrooxidans AfArsR variant C102S (Cys102 to serine) (Acidithiobacillus ferrooxidans, UniProt B7J952, C102S)", "T1 sequence (B7J952 1-118 C102S)": "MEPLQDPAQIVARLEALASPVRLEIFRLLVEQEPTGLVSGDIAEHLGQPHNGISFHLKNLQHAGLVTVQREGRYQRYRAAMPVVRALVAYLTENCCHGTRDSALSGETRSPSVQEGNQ", "format": "biochemical"}, "[2]": {"tested_on": "Acidithiobacillus ferrooxidans AfArsR, wild type (pBADarsR / pACYC184-parsO-gfp biosensor in E. coli AW3110)", "format": "cell-based"}, "[3]": {"tested_on": "Acidithiobacillus ferrooxidans AfArsR variant C102S (Cys102 eliminated by mutation; pBADarsR / parsO-gfp biosensor in E. coli AW3110)", "format": "cell-based"}, "[4]": {"tested_on": "E. coli AW3110 biosensor cells"}, "[5]": {"tested_on": "wild type AfArsR", "format": "binding, Acidithiobacillus ferrooxidans"}, "[6]": {"tested_on": "AfArsR C102S mutant", "format": "binding, Acidithiobacillus ferrooxidans"}, "[7]": {"tested_on": "AfarsR-gfp biosensor (E. coli strain AW3110 bearing pBADarsR and pACYC184-parsO-gfp)", "format": "cell-based"}, "[8]": {"tested_on": "C102S mutant biosensor (E. coli strain AW3110)", "format": "cell-based"}, "[9]": {"tested_on": "C102S biosensor co-cultured with Burkholderia sp. MR1", "format": "cell-based, E. coli / Burkholderia sp. MR1"}, "[10]": {"molecular_target": "Acidithiobacillus ferrooxidans AfArsR repressor, wild type (Acidithiobacillus ferrooxidans, UniProt B7J952)", "sequence (B7J952 1-118)": "as the sequence (B7J952 1-118 C102S) above, with S102C counted along it", "format": "biochemical", "details": "pH 7.5"}, "[11]": {"molecular_target": "T1, Acidithiobacillus ferrooxidans AfArsR variant C102S (Cys102 to serine)", "details": "previously observed; cited from earlier work"}, "[12]": {"details": "read-out: apparent half maximal concentration required for induction"}}, "note": "Entries after “also recorded” stand apart in the source; their conditions may differ. Where two headings read alike, the source gives them in different places.", "data": [{"compound": "C[As](O)O", "note": "[MAs(III), methylarsenite]", "values": [{"measurement": "binding / recognition by C102S", "setting": "[1]", "value": "still senses; also recorded: same binding affinity"}, {"measurement": "response (anisotropy), concentration range", "setting": "[1]", "value": "sub-micromolar range"}, {"measurement": "response to MAs(III), Rox(III) and PhAs(III) relative to wild type", "setting": "[1]", "value": "slightly higher than the wild type"}, {"measurement": "induction / derepression of gfp expression", "setting": "[2]", "value": "proportional to the concentration of the inducer; also recorded: induced gfp expression"}, {"measurement": "EC50", "setting": "[2]; [12]", "value": "~3", "unit": "µM"}, {"measurement": "induction / derepression of gfp expression", "setting": "[3]", "value": "proportional to the concentration of the inducer; also recorded: high levels of fluorescence"}, {"measurement": "EC50", "setting": "[3]; read-out: apparent half maximal concentration for induction", "value": "~3", "unit": "µM"}, {"measurement": "toxic at concentrations in excess of", "setting": "[4]", "value": "> 10^−5 M"}]}, {"compound": "arsenate [As(V)]", "values": [{"measurement": "effect on anisotropy of the AfArsR-DNA complex", "setting": "[5]", "value": "no effect"}]}, {"compound": "arsenite [As(III)]", "values": [{"measurement": "EC50", "setting": "[5]; read-out: half-maximal concentration for decrease of anisotropy", "value": "~10", "unit": "µM"}, {"measurement": "binding by purified AfArsR C102S mutant", "setting": "[6]", "value": "lost its binding ability"}, {"measurement": "response of C102S AfArsR (anisotropy)", "setting": "[6]", "value": "little response"}, {"measurement": "biosensor response", "setting": "[7]", "value": "practically no response"}, {"measurement": "biosensor response (gfp derepression)", "setting": "[7]", "value": "induced"}, {"measurement": "concentration around which the response is linear", "setting": "[7]", "value": "~10", "unit": "ppb"}, {"measurement": "gfp expression upon addition of arsenite", "setting": "[7]", "value": "derepressed gfp expression; also recorded: derepressing gfp expression"}, {"measurement": "induction of gfp expression", "setting": "[7]", "value": "induced gfp expression"}, {"measurement": "EC50", "setting": "[7]; [12]", "value": "~10", "unit": "µM"}, {"measurement": "biosensor response (gfp derepression)", "setting": "[8]", "value": "did not respond"}, {"measurement": "response of Cys102-lacking biosensor", "setting": "[8]", "value": "no response"}, {"measurement": "response of mutant biosensor", "setting": "[8]", "value": "no response"}, {"measurement": "response to addition of arsenite", "setting": "[8]", "value": "not responsive"}]}, {"compound": "O=[N+]([O-])c1cc([As](=O)(O)O)ccc1O", "note": "[Rox(V), 3-nitro-4-hydroxybenzenearsonic acid]", "values": [{"measurement": "biosensor response (gfp derepression)", "setting": "[7]", "value": "unresponsive"}, {"measurement": "biosensor response (gfp derepression)", "setting": "[8]", "value": "unresponsive"}, {"measurement": "response of biosensor co-cultured with Burkholderia", "setting": "[9]", "value": "didn't respond; also recorded: didn't show fluorescent"}]}, {"compound": "Sb(III) [listing 1 of 2 here]", "values": [{"measurement": "induction of gfp expression", "setting": "[7]", "value": "induced gfp expression"}]}, {"compound": "O=[As](O)(O)c1ccccc1", "note": "[PAA, phenylarsonic acid]", "values": [{"measurement": "response of biosensor co-cultured with Burkholderia", "setting": "[9]", "value": "didn't respond"}]}, {"compound": "O[As](O)O", "note": "[As(III), arsenite]", "values": [{"measurement": "EC50", "setting": "[10]; read-out: concentration required to decrease anisotropy of AfArsR-DNA complex (half-maximal)", "value": "~10", "unit": "µM"}, {"measurement": "EC50", "setting": "[10]; read-out: half-maximal concentration decreasing anisotropy of AfArsR-DNA complex", "value": "~10", "unit": "µM"}, {"measurement": "binding / recognition by C102S", "setting": "[1]", "value": "lack of binding; also recorded: no longer recognizes; also recorded: lost its binding ability"}, {"measurement": "response (anisotropy)", "setting": "[1]", "value": "little response"}, {"measurement": "concentrations sensed by the original biosensor", "setting": "[2]", "value": "micromolar concentrations"}, {"measurement": "induction / derepression of gfp expression", "setting": "[2]", "value": "derepressed gfp expression; also recorded: dissociated AfArsR from pars, derepressing gfp expression; also recorded: induced gfp expression"}, {"measurement": "linear response around concentration", "setting": "[2]", "value": "~10", "unit": "ppb"}, {"measurement": "response of the biosensor", "setting": "[2]", "value": "practically no response"}, {"measurement": "induction / derepression of gfp expression", "setting": "[3]", "value": "not responsive; also recorded: did not respond"}, {"measurement": "response to As(III)", "setting": "[3]", "value": "no response"}, {"measurement": "decrease in cellular fluorescence and growth", "setting": "[4]", "value": "≥ 40", "unit": "pM"}, {"measurement": "reduction of affinity by substitution of Cys102 with serine", "setting": "[11]", "value": "nearly an order of magnitude"}]}, {"compound": "Sb(III) [listing 2 of 2 here]", "values": [{"measurement": "induction / derepression of gfp expression", "setting": "[2]", "value": "induced gfp expression"}]}]}
